One compound from publication PMC5237709 (Acta Pharmaceutica Sinica. B, 2016) can be followed below.

Molecules are shown by their SMILES.

In one assay the target is N-Hsp90 (Saccharomyces cerevisiae, UniProt P02829). Briefly: Fluorescence quenching titration of N-terminal domain of Hsp90. The class given is binding, Yeast. To be noted: N-Hsp90 (1–236).
A further assay deals with Hsp90 ATPase (Saccharomyces cerevisiae, UniProt P02829). The assay is described as follows: Hsp90 ATPase activity assay. The class given is biochemical, Yeast.
Another assay concerns the target T1, C-Hsp90 (Saccharomyces cerevisiae, UniProt P02829).
T1 sequence (P02829 608-709): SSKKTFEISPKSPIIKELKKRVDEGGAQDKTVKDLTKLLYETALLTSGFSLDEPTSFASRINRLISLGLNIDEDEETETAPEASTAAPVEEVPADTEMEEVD
Briefly: Fluorescence quenching titration of C-terminal domain of Hsp90. It is filed as binding, Yeast. To be noted: C-Hsp90 (629–732).

Another assay concerns the target M-Hsp90 (Saccharomyces cerevisiae, UniProt P02829). Briefly: Fluorescence quenching titration of middle domain of Hsp90. It is filed as binding, Yeast. To be noted: M-Hsp90 (272–617).

Sequence of Hsp90 ATPase (P02829 whole entry): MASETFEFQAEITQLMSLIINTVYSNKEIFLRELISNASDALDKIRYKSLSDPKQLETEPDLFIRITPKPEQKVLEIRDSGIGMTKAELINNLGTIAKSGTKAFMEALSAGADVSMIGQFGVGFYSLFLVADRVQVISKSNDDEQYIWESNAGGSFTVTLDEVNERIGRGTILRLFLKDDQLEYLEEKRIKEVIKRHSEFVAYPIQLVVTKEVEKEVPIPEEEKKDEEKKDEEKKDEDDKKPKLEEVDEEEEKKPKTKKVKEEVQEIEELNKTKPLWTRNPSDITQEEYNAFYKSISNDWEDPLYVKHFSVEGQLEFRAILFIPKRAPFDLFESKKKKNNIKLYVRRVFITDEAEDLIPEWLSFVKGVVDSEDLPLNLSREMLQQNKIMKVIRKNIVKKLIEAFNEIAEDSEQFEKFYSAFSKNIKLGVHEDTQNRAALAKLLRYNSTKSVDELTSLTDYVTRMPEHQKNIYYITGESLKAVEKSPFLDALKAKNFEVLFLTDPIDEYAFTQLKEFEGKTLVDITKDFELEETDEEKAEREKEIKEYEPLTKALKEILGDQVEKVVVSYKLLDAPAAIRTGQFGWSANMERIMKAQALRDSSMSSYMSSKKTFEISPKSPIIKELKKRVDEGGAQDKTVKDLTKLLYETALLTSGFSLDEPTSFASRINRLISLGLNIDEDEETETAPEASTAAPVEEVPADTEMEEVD
Sequence of M-Hsp90 (P02829 252-596): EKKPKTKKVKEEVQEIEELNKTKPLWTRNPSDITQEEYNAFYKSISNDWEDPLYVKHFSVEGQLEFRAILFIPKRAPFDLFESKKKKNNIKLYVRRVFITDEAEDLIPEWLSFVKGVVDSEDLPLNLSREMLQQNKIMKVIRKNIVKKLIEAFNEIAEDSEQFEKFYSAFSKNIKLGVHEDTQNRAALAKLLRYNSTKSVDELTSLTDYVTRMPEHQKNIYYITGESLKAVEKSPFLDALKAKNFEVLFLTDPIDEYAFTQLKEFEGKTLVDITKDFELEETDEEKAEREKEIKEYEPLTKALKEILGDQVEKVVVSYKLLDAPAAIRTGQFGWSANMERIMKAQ
Sequence of N-Hsp90 (P02829 1-223): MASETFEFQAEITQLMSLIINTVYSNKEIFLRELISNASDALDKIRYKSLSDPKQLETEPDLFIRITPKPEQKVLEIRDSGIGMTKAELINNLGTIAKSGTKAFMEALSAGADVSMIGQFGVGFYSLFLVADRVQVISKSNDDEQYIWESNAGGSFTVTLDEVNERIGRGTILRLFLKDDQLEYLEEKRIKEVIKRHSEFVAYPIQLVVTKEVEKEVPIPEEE

As for `COC1=C2C[C@@H](C)C[C@H](OC)[C@H](O)[C@@H](C)/C=C(\C)[C@H](OC(N)=O)[C@@H](OC)/C=C\C=C(/C)C(=O)NC(=CC1=O)C2=O` [GA, Geldanamycin], the Fmax on N-Hsp90 was 221.22±4.91; at C-Hsp90, 67.91±0.63; on M-Hsp90, 158.20±1.68. The “Inhibition of the ATPase activity of Hsp90 (in words)” value at Hsp90 ATPase was “dose-dependent inhibition”.
